Key:
[1] = test system: CFTR−/− mice; assay: Fatty acid levels (GC/MS) in pancreas and lung cells of CFTR−/− mice fed n-3 fatty acids; assay type: in vivo, mouse; details: CFTR-/- mice, 40 mg/day for one week (fish oil: dose equivalent to 40 mg DHA, 60 mg EPA, 15 mg LNA); mean ± S.D.
Experimental: Mouse pancreatic acinar and lung cell suspensions were prepared from wild type (n=3) and CFTR−/− mice (n=3) by enzymatic and mechanical dissociation. In addition, brain, kidney, heart, spleen, and blood were sonicated in 0.3M sucrose buffer. Membrane lipids were extracted from cell and organ preparations with 20 volumes of chloroform-methanol 2:1 (v/v), transmethylated with 0.5 mL of 0.1 N methanolic-NaOH/BF3 reagent, and the resulting fatty acid methyl esters analyzed by gas chromatography/mass spectrometry (GC/MS). In a different set of experiments, lipids were fractionated by aminopropyl column chromatography into triglycerides, cholesterol esters, and phosphoglycerides and the fatty acid composition of each lipid class determined by a combination of enzymatic hydrolysis, transmethylation, and GC/MS.
Cystic fibrosis (UNC strain) and wild type mice (12-20 grams body weight) were fed with a complete liquid enteral formulation (Peptamen™, Nestle Clinical Nutrition, Inc.) supplemented with different quantities of the DHA-containing formulation Neuromins (Nature's Way Products Inc., Springville, Utah). DHA content in the Neuromins formulation was 100 mg per 500 mg of formulation. Mice were fed once a day at about 11 a.m., seven days a week with 20 ml of Peptamen™ supplemented with the various amounts of either Neuramins, free DHA (Sigma Chemical Co., MO) or DHA-ethyl ester (Nu-Check-Prep, Inc. MN) ranging from 0.5 mg/day of DHA to 40 mg/day of DHA.
Lung and acinar cells were isolated from a CF mouse fed with DHA formula (mouse-1, 40 mg/day DHA). The pellets (0.5 mL for pancreas cell homogenate and 0.6 mL for lung cell homogenate) were extracted with 3 mL of chloroform-methanol 2:1 (v/v). The resulting emulsion was vortexed, centrifuged at 800 g for 3 min., and the lower phase aspirated. The residual upper phase was partitioned again with 3 mL of chloroform-methanol 2:1 (v/v), the lower phase aspirated and both lower phases combined. Fractions were evaporated to dryness, processed for fatty acid methyl esters (FAME) and were analyzed by GC-MS analysis. Aliquots of 10 μL of 17:0 methyl ester solution in hexane [1 μg/μL] were added to the samples after methylation.
(§1) Lung and acinar cells were isolated from a CF and a wild-type (WT) mouse fed with DHA formula. The pellets (0.5 mL for pancreas cell homogenate and 0.6 mL for lung cell homogenate) were extracted with 3 mL of chloroform-methanol 2:1 (v/v). The resulting emulsion was vortexed, centrifuged at 800 g for 3 min., and the lower phase aspirated. The residual upper phase was partitioned again with 3 mL of chloroform-methanol 2:1 (v/v), the lower phase aspirated and both lower phases combined. Fractions were evaporated to dryness, processed for FAME and analyzed by GC-MS. Aliquots of 20 μL of 17:0 in chloroform-methanol 2:1 (v/v) were added to the samples before methylation.
as §1, with “from” for “from a”, “mice” for “and a wild-type (WT) mouse”, “different doses of DHA, i.e., 0.5 mg/day, 2.0 mg/day, 10 mg/day or 40 mg/day DHA.” for “DHA formula.”, “pellets” for “pellets (0.5 mL for pancreas cell homogenate and 0.6 mL for lung cell homogenate)”, “30” for “20”
CFTR−/− mice were prepared as described in Example 1. Both CFTR−/− mice and wild type mice were euthanized with carbon dioxide, and cell suspensions from pancreas and lung isolated.

[2] = test system: CFTR−/− mice; assay: as above; assay type: in vivo, mouse; details: CFTR-/- mice, 40 mg/day for one week (fish oil: dose equivalent to 40 mg DHA, 60 mg EPA, 15 mg LNA); mean ± S.D.; remark: listed apart in the source

CC/C=C\C/C=C\C/C=C\C/C=C\C/C=C\CCCC(=O)O [EPA, Eicosapentaenoic acid, reference compound]
DHA level in pancreas [1]: 2.2 ± 0.4 nmol/mg | AA level in pancreas [2]: 5.1 ± 0.3 nmol/mg
